Experimental data: patent US6350739B1, “Methods of prevention and treatment of ischemic damage” (University of Florida Resarch Foundation, Inc., priority 1999, dated 2002)
“Also recorded” adds a separate entry of the source. Marks after values point to notes of the source that are not given here.

Legend:
[1] = test system: middle cerebral artery (MCA) occlusion; test: Pretreatment with ent-17β-estradiol or 17β-estradiol sc in oil before MCA occlusion; format: in vivo, Sprague-Dawley female rats; conditions: for infarct area (mean±SEM): 100 μg/kg sc in oil 2 hours prior to 60 minute MCA occlusion, 24 hours reperfusion, vehicle 13.3±2.0
Method: Sprague-Dawley female rats ([…] body weight) were purchased from Charles River Laboratories, Inc. (Wilmington, Mass.). They were housed in pairs in hanging, stainless steel cage in a temperature controlled room (25° C.) with daily light cycle (light on 0700 to 1900 h daily) for a minimum of 3 days before surgery. All rats had free access to Purina Rat Chow and tap water. All procedures performed on animals were reviewed and approved by the Institutional Animal Care and Use Committee of the University of Florida before initiation of the study. Animals were ovariectomized at 1 week prior to middle cerebral artery (MCA) occlusion.
MCAO was achieved according to the methods described previously by us. Briefly, following administration of anesthetics of ketamine (60 mg/kg, ip) and xylazine (10 mg/kg, ip), the common carotid artery […] on the left side were exposed through a midline cervical incision and then gently dissected away from adjacent nerves. A 3-0 monofilament nylon suture was introduced into the left […] and gently advanced to the distal ICA until resistance was felt where the suture passed the bifurcation of the MCA and anterior cerebral artery (ACA). The thread was left in place for 60 minutes after which time re-perfusion was initiated. Rectal temperature was monitored and maintained between 36.5 and 37.0° C. during the entire stroke procedure. Each group of animals was decapitated after 24 hours of reperfusion. The brain was removed and placed in a metallic brain matrix for tissue slicing immediately after sacrifice. Five slices were made at […] posterior to the olfactory bulb. The slices were incubated for 30 minutes in a 2% solution of 2,3,5-triphenyltetrazolium chloride (ITC) in physiological saline at 37° C. and then were fixed in 10% formalin. The stained slices were photographed and subsequently measured for the surface area of the slices and the ischemic lesion area. Ischemic lesion volume was calculated as by the sums of the areas of ischemic lesion across the five slices divided by the total cross sectional area of these five brain slices.

[2] = test system: ischemia induced by middle cerebral artery occlusion (MCAO); test: Pretreatment with estrogen compound before middle cerebral artery occlusion (MCAO) in ovariectomized rats; format: in vivo, rat; set-up: % Survival: concentration or dose not given beside the values
Method: Rats were used as experimental models to test the effects of estrogen compounds in protecting against ischemic damage. To remove the naturally occurring source of estrogen, ovariectomies were performed prior to induction of ischemia.
Subsequent to the ovariectomy, rats were treated with an estrogen compound either by subcutaneous delivery with Silastic® tubes 24 hours prior to the MCA occlusion or by intravenous delivery as follows:
Subcutaneous sustained delivery: 17β- or 17α-estradiol was packed into 5 mm long Silastic® tubes (Dow-Corning, Midland, Mich.) according to the method of Mohammed et al. 1985 Ann. Neurol 18, 705-711. Sham (empty) tubes were similarly prepared as estrogen negative controls. […]
The control was administered HPCD only. The chemical delivery system is formulated so that the estrogen is slowly released from the carrier.
At 7 to 8 days after ovariectomy, a method for occluding the […] was applied to the rat using modifications of the methods of Longa et al. (1989) Stroke, vol. 20, 84-91; and Nagasawa et al. (1989) Stroke, vol.20, 1037-1043, with certain modifications, as described herein.
Animals were anesthetized by ip injection with ketamine (60 mg/kg) and xylazine (10 mg/kg). Rectal temperature was monitored and maintained between 36.5 and 37.0 C with a heat lamp throughout the entire procedure. The left carotid artery was exposed through a midline cervical incision. The left sternohyloid, sternomastoid, digastric (posterior belly) and the omohyloid muscles were divided and retracted. Part of the greater horn of the hyloid bone was cut to facilitate exposure of the distal external carotid artery (ECA). The common carotid artery (CCA), ECA, and internal carotid artery (ICA) were dissected away from adjacent nerves. The distal ECA and its branches, the CCA, and the pterygopalatine arteries were coagulated completely. A microvascular clip was placed on the ICA near skull base. A 2.5 cm length of 3-0 monofilament nylon suture was heated to create a globule for easy movement and blocking of the lumen of the vessel. This was introduced into the ECA lumen through the puncture. The suture was gently advanced to the distal ICA until it reached the clipped position. The microvascular clip was then removed and the suture was inserted until resistance was felt. The distance between the CCA bifurcation and the resistive point was about 1.8 cm. This operative procedure was completed within 10 minutes without bleeding. After the prescribed occlusion tine (40 minutes), the suture was withdrawn from the ICA and the distal ICA was immediately cauterized.
Animals that survived until the scheduled sacrifice time were sacrificed by decapitation. Scheduled post-ischemic sacrifices occurred at 6 hours, 24 hours and 1 week post MCAO (Table 1). For the 6-hour sample, animals were monitored continuously. […] Similarly, animals scheduled for the 1 week post-ischemic sacrifice were monitored for the first 4 hours after surgery and then daily thereafter.
The brains were isolated from the decapitated heads, sliced into 3 or 5 coronal tissue slices as described below and then stained with hematoxylin and eosin to determine the extent of the ischemic area Stained slices were photographed and subsequently imaged using a Macintosh Cadre 800 computer, equipped with an Image 1.47 software program for the assessment of the cross-sectional area of the ischemic lesion. These images and the calculated area of ischemic damage were stored in the program for later retrieval and data reduction. The significance of differences in mortality among the different treatment groups was determined using Chi-Square analysis.
Ovariectomized rats were treated with 5 mm Silastic® tubes containing 17α-estradiol at 24 hours prior to MCAO. At 24 hours after the MCAO, the animals were sacrificed and the brains extracted.

[3] = test system: ischemia induced by middle cerebral artery occlusion (MCAO); test: Post-treatment at 0.5, 1, 2, 3 and 4 hours after MCAO, ischemic lesion volume; format: in vivo, rat; conditions: iv 100 μg/kg HPCD-complexed plus Silastic pellet at 0.5, 1, 2, or 3 hours post-occlusion; 48 hours after MCAO
Method: Ovariectomized, non-treated animals (OVX) and non-ovariectomized, non-treated animals (INT) were used as controls (n=12 and n=6, respectively). At 48 hours following MCAO, animals were sacrificed and ischemic lesion volume was determined by obtaining brain sections as previously described and staining with TTC.

[4] = test system: primary rat brain capillary endothelial cells (BCEC); test: Brain capillary endothelial cell mortality under anoxia (Trypan blue); format: cell-based; conditions: 2 nM, 200 mg % glucose
Method: (§1) Primary rat brain capillary endothelial cells (BCEC) cultures were prepared following the method of Goldstein, J. Neurochemistry vol.
(§2) Nitrogen gas was influxed to replace the oxygen inside the chamber. The chamber was sealed and placed in the incubator for four hours for nonhypoglycemic cultures and 2 hours for hypoglycemic cultures.

[5] = test system: primary rat brain capillary endothelial cells (BCEC); test: Brain capillary endothelial cell mortality under combined anoxia and hypoglycemia; format: cell-based; conditions: 2 nM; 100 mg % glucose and 2 hours anoxia
Method: as §1, §2

[6] = test system: primary rat brain capillary endothelial cells (BCEC); test: Brain capillary endothelial cell mortality under hypoglycemia (Trypan blue); format: cell-based; conditions: 2 nM
Method: Neurochemistry vol. 25, 715-717, 1975, incorporated herein by reference. […] The glucose concentration of the culture media was then adjusted from 20 mg % to 200 mg % by adding appropriate amount of D-(+)-glucose to the glucose-free media and monitored by Glucose and L-Lactate Analyzer (YSI model 2300 STAT plus, YSI, Inc., Yellow Springs, Ohio). The hypoglycemic cultures were maintained for 24 hours or 48 hours prior to staining with Trypan blue. Cell mortality was counted using Trypan blue staining method. Cell death percentage was calculated as dead cell/alive cell×100%. Statistical methods used included two-way analysis of variance, applied to determine the significance of the difference among the experimental groups. Kruskal-Wallis nonparametric analysis was used for data presented as percentage. […] P<0.05 was considered significant.

[7] = test system: ischemia induced by middle cerebral artery occlusion (MCAO); test: Post-treatment with E2-CDS after onset of MCAO in ovariectomized rats; format: in vivo, rat
Method: At 7 to 8 days after ovariectomy, a method for occluding the middle carotid artery was applied to the rat using modifications of the methods of Longa et al. (1989) Stroke, vol.
Animals were anesthetized by ip injection with ketamine (60 mg/kg) and xylazine (10 mg/kg). Rectal temperature was monitored and maintained between 36.5 and 37.0 C with a heat lamp throughout the entire procedure. The left carotid artery was exposed through a midline cervical incision. The left sternohyloid, sternomastoid, digastric (posterior belly) and the omohyloid muscles were divided and retracted. Part of the greater horn of the hyloid bone was cut to facilitate exposure of the distal external carotid artery (ECA). The common carotid artery (CCA), ECA, and internal carotid artery (ICA) were dissected away from adjacent nerves. The distal ECA and its branches, the CCA, and the pterygopalatine arteries were coagulated completely. A microvascular clip was placed on the ICA near skull base. A 2.5 cm length of 3-0 monofilament nylon suture was heated to create a globule for easy movement and blocking of the lumen of the vessel. This was introduced into the ECA lumen through the puncture. The suture was gently advanced to the distal ICA until it reached the clipped position. The microvascular clip was then removed and the suture was inserted until resistance was felt. […]

[8] = Total of all planned sacrifice times
[9] = planned sacrifice 1 Day after MCAO
[10] = planned sacrifice 1 Week after MCAO
[11] = planned sacrifice 6 hrs after MCAO
[12] = 5 mm Silastic tube 24 hours prior to MCAO, sacrifice 24 hours after MCAO, vs sham

C[C@@]12CC[C@H]3c4ccc(O)cc4CC[C@@H]3[C@H]1CC[C@H]2O [ent-17β-estradiol, (8α,9β,13α,14β,17α)-estra-1,3,5(10)-triene-3,17-diol]
effectiveness in reducing percent lesion volume compared with 17β-estradiol ([1]; 100 μg/kg sc in oil): as effective in reducing the percent lesion volume as 17β-estradiol; also recorded: as effective a therapeutic agent as 17β-estradiol | infarct area (mean±SEM) [1]: 5.3±1.7

C[C@]12CC[C@@H]3c4ccc(O)cc4CC[C@H]3[C@@H]1CC[C@@H]2O [17β-estradiol]
reduction of ischemic lesion size of the whole coronal section, region C ([2]; 10 μg/kg sc injection two hours prior to MCAO, sacrifice at 24 hours, 9 mm caudal to olfactory bulb): 46.3% | reduction of ischemic lesion size of the whole coronal section, region D ([2]; 10 μg/kg sc injection two hours prior to MCAO, sacrifice at 24 hours, 11 mm caudal to olfactory bulb): 44.1% | Number of Animals Alive [2, 8]: 14 | Number of Animals Dead [2, 8]: 4 | % Survival ([2]; Total of all planned sacrifice times, pretreatment 24 hours prior to MCAO): 78% | % Survival ([2]; Total of all planned sacrifice times, pretreatment 24 hours prior to MCAO, listed as E2 Implant): 78* % | Number of Animals Alive [2, 9]: 8 | Number of Animals Dead [2, 9]: 0 | % Survival ([2]; planned sacrifice 1 Day after MCAO, pretreatment 24 hours prior to MCAO): 100* % | Number of Animals Alive [2, 10]: 3 | Number of Animals Dead [2, 10]: 1 | % Survival ([2]; planned sacrifice 1 Week after MCAO, pretreatment 24 hours prior to MCAO): 75* % | Number of Animals Alive [2, 11]: 3 | Number of Animals Dead [2, 11]: 3 | % Survival ([2]; planned sacrifice 6 hrs after MCAO, pretreatment 24 hours prior to MCAO): 50% | ischemic lesion, percent of cross-sectional area of brain sections ([2]; pretreatment 24 hours prior to MCAO, 3 brain slices, sacrifice 1 day or 1 week, sham 25.6±5.7%): 9.8±4.0% | mortality ([2]; pretreatment of ovariectomized rats before MCAO, untreated 65%): 22% | protective effect in tissue slices A-D (FIG. 2) ([2]; subcutaneous injection two hours prior to ischemic event): significant protective effect | protection, ischemic lesion volume [3]: significant protection | reduction of cell death ([4]; 1 hour anoxic insult): 28.4% | reduction of cell death ([4]; 4 hour anoxic insult): 18.4% | infarct area (mean±SEM) [1]: 5.3±1.6 | reduction of infarct ([1]; 100 μg/kg sc in oil 2 hours prior to MCA occlusion, vs vehicle): 60% | protection of BCEC from cumulative effect of hypoglycemia and anoxia [5]: effective in protecting cultured BCEC | cell loss saved vs control ([6]; medium glucose 20 mg %): 23. % | cell loss saved vs control ([6]; medium glucose 40 mg %): 28.4% | cell loss saved vs control ([6]; medium glucose 100 mg %): 35.9% | difference in percent cell death with and without estrogen ([6]; normal glucose 200 mg %): Little difference | reduction of ischemic area ([7]; administered 40 minutes after MCAO, range over slices): 45-90% | reduction of ischemic area (area under the ischemic curve) ([7]; administered 90 minutes after MCAO): 31%

C[C@]12CC[C@@H]3c4ccc(O)cc4CC[C@H]3[C@@H]1CC[C@H]2O [17α-estradiol]
reduction of ischemic area, slice C [2, 12]: 55% | reduction of ischemic area, slice D [2, 12]: 66% | reduction of ischemic area, slice E [2, 12]: 81% | protective effect in tissue slices A-E (FIG. 3) ([2]; sustained subcutaneous delivery initiated 24 hours prior to ischemic event): significant protective effect
